The text below walks through data of patent publication US3984547A, “Veterinary feedstuffs” (Bayer Aktiengesellschaft, priority 1971, dated 1976).

Test [1] has as its system Mycoplasma granularum. The test is described as follows: MIC, series dilution test (PPLO medium). The class given is cell-based. As to conditions: Acholeplasma granularum, 37° C, 18, 24 and 48 h, read-out: minimal inhibitory concentrations (MIC). As to the method:
(§1) For the compound of Example 3, the following minimal inhibitory concentrations (MIC) (γ/ml of nutrient medium) were measured by the series dilution test (PPLO medium), incubation temperature 37° C, determination after 18, 24 and 48 hours.

In test [2] the test system is Mycoplasma bovirhinis. Put plainly: MIC, series dilution test (PPLO medium). It is filed as cell-based. The following applies: 37° C, 18, 24 and 48 h, read-out: minimal inhibitory concentrations (MIC). As to the method: as §1
Test [3] concerns Mycoplasma gallisepticum. The test is described as follows: MIC, series dilution test (PPLO medium). It is filed as cell-based. As to conditions: Mycoplasmoides gallisepticum, 37° C, 18, 24 and 48 h, read-out: minimal inhibitory concentrations (MIC). As to the method:
as §1

For test [4], the system named is Escherichia coli C 165. The test is described as follows: ED100 in mice after intraperitoneal infection, Table 3. The following applies: read-out: effective 100% dose (ED100). It is filed as in vivo. As to the method: In animal experiments on mice, the effective 100% dose (ED100) in mg/Kg was determined for certain compounds of the invention after intraperitoneal infection and subcutaneous (s.c.) or oral (p.o.) administration of the preparation.

The test system of test [5] is Pseudomonas aeruginosa Bonn. Put plainly: MIC in vitro, plate test (agar), Table 1. The class given is cell-based. The following applies: about 37° C, readings 24 and 48 h. The procedure:
The minimum inhibitory concentrations in vitro for some of the new compounds shown in Table 1 (MIC) were determined by the plate test in an agar medium of the following composition: |proteose peptone 10.0 g per liter |5.1 × 10^3 germs were inoculated per plate. […]. Readings were taken after 24 and 48 hours, and the incubation temperature was about 37° C.

Converted amounts (≈) assume the structure as drawn. Where two headings read alike, the source gives them in different places.

For the compound `CN=Cc1c(C(=O)O)[n+]([O-])c2ccccc2[n+]1[O-]` [Example 3], the MIC in test [1] amounted to 25 µg/mL (≈ 101 µM); in test [2] it was 200 µg/mL (≈ 809 µM); in test [3] it was 100 µg/mL (≈ 405 µM). The ED100 in test [4] (C165, oral (p.c. [sic])) amounted to 100 mg/kg; in test [4] (C165, sc, s.c.), 50 mg/kg.

Regarding `O=C(O)c1c(C=NCCO)[n+]([O-])c2ccccc2[n+]1[O-]` [Example 8], the ED100 in test [4] (C165, oral (p.c. [sic])) was 100 mg/kg; in test [4] (C165, sc, s.c.), 50 mg/kg.

For `NN=Cc1c(C(=O)O)[n+]([O-])c2ccccc2[n+]1[O-]` [Example 10], the MIC in test [5] came out at 100 µg/mL (≈ 403 µM).
